Measured values reported in patent publication US7378435B2, “Aryl-isoxazole-4-carbonyl-indole-carboxylic acid amide derivatives” (Hoffmann-La Roche Inc., priority 2005, dated 2008).
Where two headings read alike, the source gives them in different places.

Target: T1, GABA A receptor α5β3γ2 (Homo sapiens, UniProt P18507+P31644)
T1 construct: expressed in transfected cells; host or cells: HEK293 (transiently transfected for the human receptors)
Experiment: [3H]flumazenil competition binding, human GABA A α5β3γ2 receptors expressed in HEK293 cells
Experimental: The affinity of compounds at GABA A receptor subtypes was measured by competition for [3H]flumazenil (85 Ci/mmol; Roche) binding to HEK293 cells expressing rat (stably transfected) or human (transiently transfected) receptors of composition α1β3γ2, α2β3γ2, α3β3γ2 and α5β3γ2.
Cell pellets were suspended in Krebs-tris buffer (4.8 mM KCl, 1.2 mM CaCl2, 1.2 mM MgCl2, 120 mM NaCl, 15 mM Tris; pH 7.5; binding assay buffer), homogenized by polytron for ca. 20 sec on ice and centrifuged for 60 min at 4° C. (50000 g; Sorvall, rotor: SM24=20000 rpm). The cell pellets were resuspended in Krebs-tris buffer and homogenized by polytron for ca. 15 sec on ice. Protein was measured (Bradford method, Bio-Rad) and aliquots of 1 mL were prepared and stored at −80° C.
Radioligand binding assays were carried out in a volume of […] (96-well plates) which contained […] of cell membranes, [3H]flumazenil at a concentration of 1 nM for α1, α2, α3 subunits and 0.5 nM for α5 subunits and the test compound in the range of […]. Nonspecific binding was defined by 10^−5 M diazepam and typically represented less than 5% of the total binding. Assays were incubated to equilibrium for 1 hour at 4° C. and harvested onto GF/C uni-filters (Packard) by filtration using a Packard harvester and washing with ice-cold wash buffer (50 mM Tris; pH 7.5). After drying, filter-retained radioactivity was detected by liquid scintillation counting. Ki values were calculated using Excel-Fit (Microsoft) and are the means of two determinations.

[1] = Table 1, human α5, [3H]flumazenil, mean of two determinations, read-out: Ki h
[2] = human α5β3γ2, 0.5 nM [3H]flumazenil, mean of two determinations, read-out: Ki[μM] hα5

**Q.** How did the Ki [1] turn out when `Cc1onc(-c2ccc(F)cc2)c1C(=O)c1c[nH]c2cc(C(=O)NC3CCOCC3)ccc12` [Example 21, 3-[3-(4-Fluoro-phenyl)-5-methyl-isoxazole-4-carbonyl]-1H-indole-6-carboxylicacid (tetrahydro-pyran-4-yl)-amide] was run?
**A.** 0.005 µM

**Q.** And the Ki [2]?
**A.** 0.005 µM

**Q.** What does the source list for `Cc1onc(-c2ccccc2)c1C(=O)c1c[nH]c2cc(C(=O)NC3CCC3)ccc12` [Example 9, 3-(5-Methyl-3-phenyl-isoxazole-4-carbonyl)-1H-indole-6-carboxylicacidcyclobutylamide]?
**A.** Ki [1]: 0.00435 µM; Ki [2]: 0.00435 µM

**Q.** Which Ki [1] does the source give for `C#CCNC(=O)c1ccc2c(C(=O)c3c(-c4cccc(F)c4)noc3C)c[nH]c2c1` [Example 31, 3-[3-(3-Fluoro-phenyl)-5-methyl-isoxazole-4-carbonyl]-1H-indole-6-carboxylicacid prop-2-ynylamide] here?
**A.** 0.0319 µM

**Q.** How did the Ki turn out when `Cc1onc(-c2cccc(F)c2)c1C(=O)c1cn(C)c2cc(C(=O)NCc3ccco3)ccc12` [Example 42, 3-[3-(3-Fluoro-phenyl)-5-methyl-isoxazole-4-carbonyl]-1-methyl-1H-indole-6-carboxylic acid(furan-2-ylmethyl)-amide] was run?
**A.** 0.0769 µM

**Q.** With `Cc1onc(-c2ccc(F)cc2)c1C(=O)c1c[nH]c2cc(C(=O)NCc3ccncc3)ccc12` [Example 16, 3-[3-(4-Fluoro-phenyl)-5-methyl-isoxazole-4-carbonyl]-1H-indole-6-carboxylicacid (pyridin-4-ylmethyl)-amide] as the molecule, how does the Ki [1] read?
**A.** 0.00365 µM

**Q.** What about the Ki [2] of the same molecule?
**A.** 0.00365 µM

**Q.** With `C#CCNC(=O)c1ccc2c(C(=O)c3c(-c4cccc(F)c4)noc3C(C)C)c[nH]c2c1` [Example 38, 3-[3-(3-Fluoro-phenyl)-5-isopropyl-isoxazole-4-carbonyl]-1H-indole-6-carboxylicacid prop-2-ynylamide] as the molecule, how does the Ki [1] read?
**A.** 0.0315 µM

**Q.** `Cc1onc(-c2ccccc2)c1C(=O)c1c[nH]c2cc(C(=O)NC3CCOCC3)ccc12` [Example 11, 3-(5-Methyl-3-phenyl-isoxazole-4-carbonyl)-1H-indole-6-carboxylicacid (tetrahydro-pyran-4-yl)-amide] was tested. Which Ki [1] did it give?
**A.** 0.00545 µM

**Q.** What about the Ki [2] of the same molecule?
**A.** 0.00545 µM

**Q.** How did the Ki [1] turn out when `Cc1onc(-c2cccc(F)c2)c1C(=O)c1c[nH]c2cc(C(=O)NC3CCC3)ccc12` [Example 34, 3-[3-(3-Fluoro-phenyl)-5-methyl-isoxazole-4-carbonyl]-1H-indole-6-carboxylicacidcyclobutylamide] was run?
**A.** 0.059 µM

**Q.** For `Cc1onc(-c2cccc(F)c2)c1C(=O)c1c[nH]c2cc(C(=O)NC3CC3)ccc12` [Example 35, 3-[3-(3-Fluoro-phenyl)-5-methyl-isoxazole-4-carbonyl]-1H-indole-6-carboxylicacidcyclopropylamide], which Ki [1] is on record?
**A.** 0.038 µM

**Q.** For `Cc1onc(-c2ccccc2)c1C(=O)c1c[nH]c2cc(C(=O)NCC3CC3)ccc12` [Example 2, 3-(5-Methyl-3-phenyl-isoxazole-4-carbonyl)-1H-indole-6-carboxylicacidcyclopropylmethyl-amide], which Ki [1] is on record?
**A.** 0.00545 µM

**Q.** And the Ki [2]?
**A.** 0.00545 µM

**Q.** What does the source list for `Cc1onc(-c2cccc(F)c2)c1C(=O)c1cn(-c2ccccc2)c2cc(C(=O)NC3CCOCC3)ccc12` [Example 50, 3-[3-(3-Fluoro-phenyl)-5-methyl-isoxazole-4-carbonyl]-1-phenyl-1H-indole-6-carboxylic acid(tetrahydro-pyran-4-yl)-amide]?
**A.** Ki [1]: 0.0098 µM; Ki [2]: 0.0098 µM

**Q.** `Cc1onc(-c2cccc(F)c2)c1C(=O)c1c[nH]c2cc(C(=O)NCc3ccccn3)ccc12` [Example 27, 3-[3-(3-Fluoro-phenyl)-5-methyl-isoxazole-4-carbonyl]-1H-indole-6-carboxylicacid (pyridin-2-ylmethyl)-amide] was tested. Which Ki [1] did it give?
**A.** 0.0394 µM

**Q.** With `Cc1onc(-c2cccc(F)c2)c1C(=O)c1c[nH]c2cc(C(=O)NC3CCOCC3)ccc12` [Example 32, 3-[3-(3-Fluoro-phenyl)-5-methyl-isoxazole-4-carbonyl]-1H-indole-6-carboxylicacid (tetrahydro-pyran-4-yl)-amide] as the molecule, how does the Ki [1] read?
**A.** 0.0418 µM

**Q.** `Cc1onc(-c2ccccc2)c1C(=O)c1c[nH]c2cc(C(=O)NC3CCCC3)ccc12` [Example 10, 3-(5-Methyl-3-phenyl-isoxazole-4-carbonyl)-1H-indole-6-carboxylicacidcyclopentylamide] was tested. Which Ki [1] did it give?
**A.** 0.0137 µM

**Q.** With `Cc1onc(-c2ccc(F)cc2)c1C(=O)c1c[nH]c2cc(C(=O)NCCO)ccc12` [Example 18, 3-[3-(4-Fluoro-phenyl)-5-methyl-isoxazole-4-carbonyl]-1H-indole-6-carboxylicacid (2-hydroxy-ethyl)-amide] as the molecule, how does the Ki [1] read?
**A.** 0.00185 µM

**Q.** And the Ki [2]?
**A.** 0.00185 µM

**Q.** For `Cc1onc(-c2ccc(F)cc2)c1C(=O)c1c[nH]c2cc(C(=O)NCc3ccco3)ccc12` [Example 15, 3-[3-(4-Fluoro-phenyl)-5-methyl-isoxazole-4-carbonyl]-1H-indole-6-carboxylicacid (furan-2-ylmethyl)-amide], which Ki [1] is on record?
**A.** 0.00485 µM

**Q.** What about the Ki [2] of the same molecule?
**A.** 0.00484 µM

**Q.** `Cc1onc(-c2cccc(F)c2)c1C(=O)c1cn(-c2ccccc2)c2cc(C(=O)NC3CCCC3)ccc12` [Example 51, 3-[3-(3-Fluoro-phenyl)-5-methyl-isoxazole-4-carbonyl]-1-phenyl-1H-indole-6-carboxylic acidcyclopentylamide] was tested. Which Ki did it give?
**A.** 0.0402 µM

**Q.** What does the source list for `C#CCNC(=O)c1ccc2c(C(=O)c3c(-c4ccc(F)cc4)noc3C)c[nH]c2c1` [Example 20, 3-[3-(4-Fluoro-phenyl)-5-methyl-isoxazole-4-carbonyl]-1H-indole-6-carboxylicacid prop-2-ynylamide]?
**A.** Ki [1]: 0.00325 µM; Ki [2]: 0.00325 µM

**Q.** Which Ki [1] does the source give for `Cc1onc(-c2cccc(F)c2)c1C(=O)c1c[nH]c2cc(C(=O)NCC3CC3)ccc12` [Example 30, 3-[3-(3-Fluoro-phenyl)-5-methyl-isoxazole-4-carbonyl]-1H-indole-6-carboxylicacidcyclopropylmethyl-amide] here?
**A.** 0.0537 µM

**Q.** Which Ki [1] does the source give for `Cc1onc(-c2ccccc2)c1C(=O)c1c[nH]c2cc(C(=O)NCCc3cnc[nH]3)ccc12` [Example 4, 3-(5-Methyl-3-phenyl-isoxazole-4-carbonyl)-1H-indol-6-carboxylicacid [2-(1H-imidazol-4-yl)-ethyl]-amide] here?
**A.** 0.00265 µM

**Q.** And the Ki [2]?
**A.** 0.00265 µM

**Q.** Which Ki does the source give for `C#CCNC(=O)c1ccc2c(C(=O)c3c(-c4cccc(F)c4)noc3C)cn(C)c2c1` [Example 44, 3-[3-(3-Fluoro-phenyl)-5-methyl-isoxazole-4-carbonyl]-1-methyl-1H-indole-6-carboxylic acidprop-2-ynylamide] here?
**A.** 0.0383 µM

**Q.** How did the Ki [1] turn out when `Cc1onc(-c2ccc(F)cc2)c1C(=O)c1c[nH]c2cc(C(=O)NC3CCCC3)ccc12` [Example 22, 3-[3-(4-Fluoro-phenyl)-5-methyl-isoxazole-4-carbonyl]-1H-indole-6-carboxylicacidcyclopentylamide] was run?
**A.** 0.00975 µM

**Q.** What about the Ki [2] of the same molecule?
**A.** 0.00975 µM
